PubChem BioAssay AID1671241

Biological target: Macrophage colony-stimulating factor 1 receptor (Homo sapiens) (UniProt P07333)
Test: inhibition of human FMS receptor kinase activity – biochemical, Z'-LYTE, FRET, protease-coupled, direct format, dose response (AID 1671241)
Details: Z'-LYTE FRET kinase assay, CSF1R

Chain of Macrophage colony-stimulating factor 1 receptor (Homo sapiens) (P07333 whole entry, looked up): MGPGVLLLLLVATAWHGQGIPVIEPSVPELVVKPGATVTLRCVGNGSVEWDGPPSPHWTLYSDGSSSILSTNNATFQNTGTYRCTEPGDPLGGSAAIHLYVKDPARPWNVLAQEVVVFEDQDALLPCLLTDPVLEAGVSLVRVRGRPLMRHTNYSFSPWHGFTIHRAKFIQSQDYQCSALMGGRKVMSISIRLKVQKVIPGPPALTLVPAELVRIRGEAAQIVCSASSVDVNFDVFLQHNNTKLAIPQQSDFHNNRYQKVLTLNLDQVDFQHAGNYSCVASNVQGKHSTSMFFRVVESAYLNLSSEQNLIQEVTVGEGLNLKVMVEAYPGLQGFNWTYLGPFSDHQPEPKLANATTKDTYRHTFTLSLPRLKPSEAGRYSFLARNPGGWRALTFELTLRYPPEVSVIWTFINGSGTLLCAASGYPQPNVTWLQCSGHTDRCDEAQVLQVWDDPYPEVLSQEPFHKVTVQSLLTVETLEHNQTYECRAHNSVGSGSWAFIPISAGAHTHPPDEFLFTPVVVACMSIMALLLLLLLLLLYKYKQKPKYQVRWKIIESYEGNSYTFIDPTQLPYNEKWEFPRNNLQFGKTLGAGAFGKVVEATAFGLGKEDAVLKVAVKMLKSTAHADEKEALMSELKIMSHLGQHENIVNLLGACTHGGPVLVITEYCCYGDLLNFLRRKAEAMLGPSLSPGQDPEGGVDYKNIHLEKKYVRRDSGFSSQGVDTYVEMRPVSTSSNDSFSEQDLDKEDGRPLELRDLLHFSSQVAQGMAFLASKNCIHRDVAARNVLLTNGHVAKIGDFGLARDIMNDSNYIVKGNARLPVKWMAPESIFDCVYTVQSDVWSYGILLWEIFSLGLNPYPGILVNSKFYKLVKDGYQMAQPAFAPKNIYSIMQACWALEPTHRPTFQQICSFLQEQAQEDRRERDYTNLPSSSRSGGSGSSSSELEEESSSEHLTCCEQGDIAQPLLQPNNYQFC

- IC50: 6.02 µM
Compound: COc1cc2ncnc(Nc3cccc(Cl)c3)c2cc1OC
